{
  "source": "ChEMBL document CHEMBL1201862",
  "about": "“PubChem BioAssay data set” (2004)",
  "assay_in_all_cases": "inhibition of tumour cell growth, NCI panel, 48 h",
  "key": {"[1]": {"test_system": "Hs-578T"}, "[2]": {"test_system": "UACC-257"}, "[3]": {"test_system": "NCI/ADR-RES"}, "[4]": {"test_system": "T47D"}, "[5]": {"test_system": "COLO 205"}, "[6]": {"test_system": "HCT-116"}, "[7]": {"test_system": "NCI-H23"}, "[8]": {"test_system": "HCT-15"}, "[9]": {"test_system": "HL-60"}, "[10]": {"test_system": "M14"}, "[11]": {"test_system": "TK-10"}, "[12]": {"test_system": "K562"}, "[13]": {"test_system": "SNB-19"}, "[14]": {"test_system": "SF-295"}, "[15]": {"test_system": "DU-145"}, "[16]": {"test_system": "RXF 393"}, "[17]": {"test_system": "OVCAR-3"}, "[18]": {"test_system": "MCF7"}, "[19]": {"test_system": "786-0"}, "[20]": {"test_system": "CCRF-CEM"}},
  "note": "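Five compound concentrations were applied to cells in 96-well plates for 48 hours; endpoints were derived by simple linear interpolation of the resulting dose-response curve. Here, GI50 denotes the concentration required for 50% inhibition of growth.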 Active and inactive are the calls of the source. Cut-off read from the data, not from the text of the source: active = GI50 up to about 1.1 µM and inactive = higher.",
  "data": [
    {"smiles": "CN(C)c1n/c(=N/Cc2ccco2)ss1", "values": [
      {"measurement": "GI50", "setting": "[1]", "result": "29.6 µM (inactive)"},
      {"measurement": "GI50", "setting": "[2]", "result": "46.5 µM (inactive)"},
      {"measurement": "GI50", "setting": "[3]", "result": "75.3 µM (inactive)"},
      {"measurement": "GI50", "setting": "[4]", "result": "14.3 µM (inactive)"},
      {"measurement": "GI50", "setting": "[5]", "result": "2.06 µM (inactive)"},
      {"measurement": "GI50", "setting": "[6]", "result": "8.97 µM (inactive)"},
      {"measurement": "GI50", "setting": "[7]", "result": "25.6 µM (inactive)"},
      {"measurement": "GI50", "setting": "[8]", "result": 21.3, "unit": "µM"},
      {"measurement": "GI50", "setting": "[9]", "result": "1.59 µM (inactive)"},
      {"measurement": "GI50", "setting": "[10]", "result": "21 µM (inactive)"},
      {"measurement": "GI50", "setting": "[11]", "result": "40 µM (inactive)"},
      {"measurement": "GI50", "setting": "[12]", "result": "3.77 µM (inactive)"},
      {"measurement": "GI50", "setting": "[13]", "result": "60.5 µM (inactive)"},
      {"measurement": "GI50", "setting": "[14]", "result": "37.2 µM (inactive)"},
      {"measurement": "GI50", "setting": "[15]", "result": "> 66.5 µM (inactive)"},
      {"measurement": "GI50", "setting": "[16]", "result": "7.98 µM (inactive)"},
      {"measurement": "GI50", "setting": "[17]", "result": "8.97 µM (inactive)"},
      {"measurement": "GI50", "setting": "[18]", "result": "16.4 µM (inactive)"},
      {"measurement": "GI50", "setting": "[19]", "result": "3.65 µM (inactive)"},
      {"measurement": "GI50", "setting": "[20]", "result": "1.43 µM (inactive)"}
    ]}
  ]
}
